Reference: PubChem BioAssay AID248 (DTP/NCI, 2004)
Values joined by “and” are separate entries in the source; they are usually repeats but may differ in a detail not shown here. Equal values may be shown once. Toxic doses and inconclusive results are not listed. Rule as the data show it: active = T/C of 150% or more; inactive = T/C below 125%.

Tested on: L1210 leukemia ip in BDF1 mice, survival T/C
Assay: NCI In Vivo Anticancer Drug Screen. Data for tumor model L1210 Leukemia (intraperitoneal) in B6D2F1 (BDF1) mice
Conditions: endpoint: mean survival time, higher = longer survival
In short: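 Transplanted-tumor mice were given test agent; controls received vehicle only. Survival readings from the two groups were divided (treated over control).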

[1] = dose: 100.0 mg/kg/injection, schedule: Q01DX009 (ip), vehicle: Klucel (hydroxypropylcellulose) (HPC)
[2] = dose: 100.0 mg/kg/injection, schedule: Q04DX003 (ip), vehicle: Klucel (hydroxypropylcellulose) (HPC)
[3] = dose: 200.0 mg/kg/injection, schedule: Q01DX009 (ip), vehicle: Klucel (hydroxypropylcellulose) (HPC)
[4] = dose: 200.0 mg/kg/injection, schedule: Q04DX003 (ip), vehicle: Klucel (hydroxypropylcellulose) (HPC)
[5] = dose: 400.0 mg/kg/injection, schedule: Q01DX009 (ip), vehicle: Klucel (hydroxypropylcellulose) (HPC)
[6] = dose: 400.0 mg/kg/injection, schedule: Q04DX003 (ip), vehicle: Klucel (hydroxypropylcellulose) (HPC)
[7] = dose: 100.0 mg/kg/injection, schedule: Q01DX009 (ip), vehicle: saline with Tween-80
[8] = dose: 100.0 mg/kg/injection, schedule: Q01DX001 (ip), vehicle: saline
[9] = dose: 200.0 mg/kg/injection, schedule: Q01DX001 (ip), vehicle: saline
[10] = dose: 100.0 mg/kg/injection, schedule: Q04DX002 (ip), vehicle: saline
[11] = dose: 200.0 mg/kg/injection, schedule: Q04DX002 (ip), vehicle: saline

Measured: T/C

O=C(COc1ccc(Cl)cc1)Nc1cc(C(F)(F)F)ccc1Cl
inactive: [1] 94 % of control | [2] 98 % of control | [3] 86 % of control | [4] 93 % of control | [5] 86 % of control | [6] 95 % of control

CNC(=O)Nc1ccc(C)c(Cl)c1
inactive: [1] 100 % of control | [2] 102 % of control | [3] 90 % of control | [4] 102 % of control | [5] 106 % of control | [6] 104 % of control

NCCSS(=O)(=O)CCN
inactive: dose: 100.0 mg/kg/injection, schedule: Q01DX009 (ip), vehicle: saline 105 % of control | dose: 100.0 mg/kg/injection, schedule: Q04DX003 (ip), vehicle: saline 106 % of control | dose: 200.0 mg/kg/injection, schedule: Q01DX009 (ip), vehicle: saline 107 % of control | dose: 200.0 mg/kg/injection, schedule: Q04DX003 (ip), vehicle: saline 107 % of control | dose: 400.0 mg/kg/injection, schedule: Q01DX009 (ip), vehicle: saline 100 % of control | dose: 400.0 mg/kg/injection, schedule: Q04DX003 (ip), vehicle: saline 100 % of control

Brc1ccc2c(c1)oc1ccccc12
inactive: [1] 102 % of control | [2] 105 % of control | [3] 97 % of control | [4] 107 % of control | [5] 100 % of control | [6] 91 % of control

CCOC(=O)C/C(C)=N\NC(N)=O
inactive: dose: 100.0 mg/kg/injection, schedule: Q04DX002 (ip), vehicle: Klucel (hydroxypropylcellulose) (HPC) 104 % of control | dose: 200.0 mg/kg/injection, schedule: Q04DX002 (ip), vehicle: Klucel (hydroxypropylcellulose) (HPC) 101 % of control | dose: 400.0 mg/kg/injection, schedule: Q04DX002 (ip), vehicle: Klucel (hydroxypropylcellulose) (HPC) 97 % of control

C/C(=N/O)c1ccncc1
inactive: [2] 100 % of control | [4] 95 % of control | [6] 95 % of control

O=C(O)COc1c(Cl)c(Cl)c(Cl)c(Cl)c1Cl
inactive: [7] 93 % of control

O=C(C1=C(C(=O)c2ccccc2)C2C=CC1C2)c1ccccc1
inactive: dose: 75.0 mg/kg/injection, schedule: Q04DX003 (ip), vehicle: Klucel (hydroxypropylcellulose) (HPC) 96 % of control | dose: 150.0 mg/kg/injection, schedule: Q04DX003 (ip), vehicle: Klucel (hydroxypropylcellulose) (HPC) 94 % of control | dose: 300.0 mg/kg/injection, schedule: Q04DX003 (ip), vehicle: Klucel (hydroxypropylcellulose) (HPC) 89 % of control

CCCCCC#CC(C)OC(=O)Nc1cccc2ccccc12 (stereo not given)
inactive: dose: 100.0 mg/kg/injection, schedule: Q01DX001 (ip), vehicle: saline with Tween-80 96 % of control | dose: 200.0 mg/kg/injection, schedule: Q01DX001 (ip), vehicle: saline with Tween-80 98 % of control | dose: 400.0 mg/kg/injection, schedule: Q01DX001 (ip), vehicle: saline with Tween-80 86 % of control

CCC(C)C(C)C(C)=O (stereo not given)
inactive: dose: 50.0 mg/kg/injection, schedule: Q01DX001 (ip), vehicle: saline 110 % of control | [8] 101 % of control | [9] 93 % of control

ClCC1COC(Cc2ccccc2)O1 (stereo not given)
inactive: dose: 222.0 mg/kg/injection, schedule: Q01DX Z (ip), vehicle: saline 97 % of control | dose: 333.0 mg/kg/injection, schedule: Q01DX Z (ip), vehicle: saline 97 % of control | dose: 500.0 mg/kg/injection, schedule: Q01DX Z (ip), vehicle: saline 103 % of control

CC1C(C)C1(Br)c1ccccc1 (stereo not given)
inactive: [8] 91 % of control | [9] 101 % of control | dose: 400.0 mg/kg/injection, schedule: Q01DX001 (ip), vehicle: saline 96 % of control

O=C(COc1ccc(Cl)c(Cl)c1)Nc1ccc[n+](Cc2cccc([N+](=O)[O-])c2)c1
inactive: dose: 100.0 mg/kg/injection, schedule: Q01DX001 (ip), vehicle: Klucel (hydroxypropylcellulose) (HPC) 95 % of control | dose: 200.0 mg/kg/injection, schedule: Q01DX001 (ip), vehicle: Klucel (hydroxypropylcellulose) (HPC) 94 % of control | dose: 400.0 mg/kg/injection, schedule: Q01DX001 (ip), vehicle: Klucel (hydroxypropylcellulose) (HPC) 94 % of control

CCCCC(=O)C(CCC)C(=O)Nc1ccccc1 (stereo not given)
inactive: dose: 50.0 mg/kg/injection, schedule: Q04DX003 (ip), vehicle: Klucel (hydroxypropylcellulose) (HPC) 98 % of control | dose: 100.0 mg/kg/injection, schedule: Q01DX001 (ip), vehicle: carboxymethylcellulose (CMC) 100 % of control | [2] 94 % of control and 98 % of control | dose: 200.0 mg/kg/injection, schedule: Q01DX001 (ip), vehicle: carboxymethylcellulose (CMC) 91 % of control | [4] 96 % of control and 98 % of control | dose: 400.0 mg/kg/injection, schedule: Q01DX001 (ip), vehicle: carboxymethylcellulose (CMC) 91 % of control | [6] 98 % of control

COc1cccn(C/C=C(\C)CCC=C(C)C)c1=O
inactive: dose: 25.0 mg/kg/injection, schedule: Q01DX009 (ip), vehicle: saline with Tween-80 104 % of control | dose: 25.0 mg/kg/injection, schedule: Q04DX003 (ip), vehicle: saline with Tween-80 99 % of control | dose: 50.0 mg/kg/injection, schedule: Q01DX009 (ip), vehicle: saline with Tween-80 94 % of control | dose: 50.0 mg/kg/injection, schedule: Q04DX003 (ip), vehicle: saline with Tween-80 97 % of control | [7] 90 % of control | dose: 100.0 mg/kg/injection, schedule: Q04DX003 (ip), vehicle: saline with Tween-80 91 % of control

CCC(O)C(c1ccccc1)(c1ccccc1)C(C)CN(C)C (stereo not given)
inactive: [8] 100 % of control | [9] 97 % of control

Cc1cc(Cl)c(N)[c]([Hg][I])c1F
inactive: dose: 12.0 mg/kg/injection, schedule: Q01DX001 (ip), vehicle: Klucel (hydroxypropylcellulose) (HPC) 90 % of control | dose: 25.0 mg/kg/injection, schedule: Q01DX001 (ip), vehicle: Klucel (hydroxypropylcellulose) (HPC) 86 % of control | dose: 50.0 mg/kg/injection, schedule: Q01DX001 (ip), vehicle: Klucel (hydroxypropylcellulose) (HPC) 92 % of control

Clc1ccc2c(NCCN3CCCCCC3)nc(C(Cl)(Cl)Cl)nc2c1
inactive: dose: 75.0 mg/kg/injection, schedule: Q01DX001 (ip), vehicle: other 103 % of control | dose: 150.0 mg/kg/injection, schedule: Q01DX001 (ip), vehicle: other 97 % of control

O=P(O)(O)OCC1OC(n2cnc3c(Cl)ncnc32)C(O)C1O (stereo not given)
inactive: dose: 50.0 mg/kg/injection, schedule: Q04DX002 (ip), vehicle: saline 115 % of control | [10] 100 % of control | [11] 123 % of control

O=S1(=O)CS(=O)(=O)CS(=O)(=O)C1
inactive: [10] 108 % of control | [11] 119 % of control | dose: 400.0 mg/kg/injection, schedule: Q04DX002 (ip), vehicle: saline 101 % of control

COC(=O)Nc1ccc(C)c(NC(=O)OC)c1
inactive: [2] 104 % of control | [4] 93 % of control | [6] 107 % of control

CC(C)c1ccccc1NC1=NCCO1
inactive: dose: 12.5 mg/kg/injection, schedule: Q01DX009 (ip), vehicle: Klucel (hydroxypropylcellulose) (HPC) 86 % of control | dose: 25.0 mg/kg/injection, schedule: Q01DX009 (ip), vehicle: Klucel (hydroxypropylcellulose) (HPC) 89 % of control | dose: 25.0 mg/kg/injection, schedule: Q04DX002 (ip), vehicle: saline with Tween-80 101 % of control | dose: 50.0 mg/kg/injection, schedule: Q01DX009 (ip), vehicle: Klucel (hydroxypropylcellulose) (HPC) 96 % of control and 89 % of control | dose: 50.0 mg/kg/injection, schedule: Q04DX002 (ip), vehicle: saline with Tween-80 96 % of control | dose: 100.0 mg/kg/injection, schedule: Q04DX002 (ip), vehicle: saline with Tween-80 86 % of control | dose: 200.0 mg/kg/injection, schedule: Q04DX002 (ip), vehicle: saline with Tween-80 86 % of control
